According to patent US20100159042A1, “CAPSICUM BASED MILDEW KILLING SOLUTION AND METHOD OF USE” (priority 2008, published 2010):

Key:
[1] = tested on: Powdery Mildew (PM), Uncinula Necator; assay: First year grape vine spray test (Thompson Seedless grapes); format: in vivo; conditions: summary of first year test
From the text: The objective of this study was to test the affect of capsicum on Powdery Mildew (PM), Uncinula Necator and Downey Mildew (DM), Plasmopara Viticola and its destruction of the grape vine, leaves, flag shoots, shoots and bunches. Grape varieties are susceptible to powdery mildew and Downey mildew, Thompson's Seedless grapes was used as a test subject.
Treatment began in the beginning of the season onto fruiting bodies (Cleistothecia) and the early stage of bud growth (3 to 5 inches). Later treatment was applied again, after about 3 weeks when there was new bud growth. When the fruits were about the size of small peas, treatment is once again applied to the bunches. Treatment was also planned to be administered if symptoms of fungal infections arose.
• Kalsec brand water soluble; Code #01-050-02-01 • MasterTaste brand oil soluble; Code 500087, Lot #059618
The grape vineyard to be treated is located at 19521 American Ave., Kerman Calif.,—Thompson Seedless grapes—NW corner. (Block 5B). Vines were sprayed with standard spray equipment (bottles). The spray was applied at approximately one foot away from the plants and vines. The spray was applied at an application rate of about ½ the usual spray application from a standard tractor rig. The budding fruit was sprayed along with the leaves and new budding growth. The spray was administered from the sides only. […]

[2] = cited from earlier work

COc1cc(CNC(=O)CCCC/C=C/C(C)C)ccc1O [Capsaicin, N-vanillyl-8-methyl-6-(E)-noneamide]
effect on growth of mildew on grape vines [1]: hinders or kills the growth of mildew | solubility in alcohol ([2]; alcohol): soluble | solubility in cold water ([2]; cold water): insoluble | solubility in fats, oils and alcohol ([2]; fats, oils and alcohol): very soluble | solubility in water ([2]; water): sparingly soluble
